# Source: patent publication US8030493B2, “Monovalent and divalent salts of N-(5-hydroxynicotinoil) -L-glutamic acid exhibiting psychotropic (antidepressant and anxiolytic), neuroprotective, geroprotective and cerebroprotective action” (Obschestvo S Ogranichennoy Otvetstvennostyu “Natsionalnaya …, priority 2006, dated 2011)
# Marks after values point to notes of the source that are not given here.
# How the values were obtained:
# Assay type in all cases: in vivo
# [1] = test system: rats with massive cortical ischemia; test: Model of massive cortical ischemia (occlusion of middle cerebral artery): ischemic damage of cerebral cortex; conditions: for Intensity of ischemic damage of cerebral cortex (slice score, points), slice 1 / Intensity of ischemic damage of cerebral cortex (slice score, points), slice 2 / Intensity of ischemic damage of cerebral cortex (slice score, points), slice 3 / Intensity of ischemic damage of cerebral cortex (slice score, points), slice 4 / Intensity of ischemic damage of cerebral cortex (slice score, points), slice 5: 72 hours after OMCA
# Method: White nondescript male rats with body weight 350-450 g anesthetized with chloral hydrate (400 mg/kg, intraperitoneally) were used in the experiments. After ligation of left carotid occlusion of middle cerebral artery (OMCA) was made under the microscope (magnification 14.0×3.3) proximal to bifurcation to frontal and parietal branches (S. T. Chen et al., Stroke, 1986, v. 17, No 4, p. 738-743).
# After the surgery the animals were randomized into 3 groups. Experimental animals received Compound I or nooglutyl intraperitoneously 30 minutes, 2, 24, and 48 hours after the surgery. Control animals at the same time points received saline (0.9% sodium chloride solution). 72 hours after OMCA the animals were decapitated. Material frozen at −20° C. was used for preparation of 5 frontal slices 2.5 mm thick, which were painted with 2,3,5-triphenyltetrazolium solution (TPTZ). Auc1 morphometric program was used to perform planimetria, determination of affected zone extent and percentage of affected zone extent in relation to volume of ipsilateral hemisphere. The surgery results in creation of vast ischemic damage of the brain cortex, which is localized within frontal-parietal and dorsal-lateral zones. To compare intensity of the changes in different slices arbitrary scale was used, with 75%, 60%, 45%, 20%, 5%, and 0% affection of hemisphere assessed as 2.5 points, 2 points, 1.5 points, 1 point, 0.5 points, and 0 points, respectively.
# [2] = test system: mice exposed to hypobaric hypoxia; test: Acute hypobaric hypoxia in flow-exhaust chamber
# Method: White nondescript male mice with body weight 22-28 g were used in the experiments. Each dose level was studied in 10 animals. Control animals received equivalent volume of distilled water. Nooglutyl was used as reference agent. Study compounds were administered intraperitoneally 40 minutes before the experiment.
# Acute hypobaric hypoxia was simulated in flow-exhaust chamber. Pressure was measured with altimeter, and elevation speed with variometer. The animals were “elevated” at the speed 20 m/s to the stage at 11000 m. The exposure lasted 10 minutes. Then the animals were mover down to the baseline level for 5 minutes. Hypoxia with hypercapnia in hermovolume was created by placement of the animal into 200 ml hermetically sealed glass vessels. Life period of the animals under hypoxic conditions was recorded. Each group comprised 10 animals.
# [3] = test system: rats with induced ischemia; test: Passive avoidance response in animals with induced ischemia; conditions: 24 hours after learning, 180 seconds test
# Source text: In separate series of the experiments the animals learned in the test of passive avoidance response (PAR), which was formed in apparatus supplied by Lafayette Instrument Co. (USA) comprising brightly illuminated hanging platform connected to dark chamber with electrified floor. In the course of learning the rat entered dark chamber due to congenital hole reflex, and received pain electric stimulus.
# These effects of nooglutyl and Compound Ia were significant compared with control at p<0.05.
# [4] = test system: rats with hemorrhagic stroke; test: Intracerebral posttraumatic hematoma (hemorrhagic stroke): survival; conditions: 20 mg/kg single dose intraperitoneally 3-3.5 hours after surgery
# Source text: White nondescript male rats with body weight 200-250 g, which lived in vivarium and had feed (standard palletized feed) and water ad libitum, with natural alternation of day and night, were used in the experiments. Hemorrhagic stroke (local cerebral hemorrhage) was simulated according to method by A. N. Makarenko et al. (Method of local hemorrhage simulation I various structures of the brain in experimental animals. Journal Visshei Nervnoy Deyatelnosti—Journal of Higher Nervous Activities, 2002, v. 52, No 6, p. 765-768). In nembutal-anesthetized rats (40 mg/kg, i.m.) destruction of the brain tissue in capsule interna area was made with the use of special device (mandarin-knife) followed by application of blood (0.02-0.03 ml) taken from under the rat's tongue to the damaged area (within 2-3 minutes). False-operated animals underwent scalping and craniotomy. The animals were divided into 5 groups: intact rats, false-operated rats, animals with hemorrhagic stroke received nooglutyl at 20 mg/kg, and animals with hemorrhagic stroke received Compound I at 20 mg/kg. Effects were recorded within 24 hours and 14 days after the surgery. Learning ability and memory of the rats was examined in the model of passive avoidance response (PAR, Passive Avoidance supplied by Lafayette Instrument Co., USA). To determine neurological deficit in the animals Stroke-index McGrow scale modified by I. V. Gannushkina (Functional architectonics of the brain, Moscow, Medicina, 1977, 224 p.) was used. The severity of the condition was determined by the sum of the points. The number of rats with mild symptoms up to 2.5 points of Stroke-index scale (apathy, weakness of the extremities, unilateral semiptosis, tremor, circus movements) and severe manifestations of neurological disorders (3 to 10 points)—paresis of the extremities, palsy of low extremities, lateral position. The animals received single dose of nooglutyl and Compound I at the same dose 20 mg/kg intraperitoneally within 3-3.5 hours after the surgery. Controlled animals were treated with saline. At onset of the experiment each group comprised 15-20 animals. Mortality of the rats was recorded throughout the observation period (14 days). Statistical analysis was made using parametrical and non-parametrical methods and Biostat software. Nimodipin administered at 01.mg/kg according to above scheme was considered as a standard.
# [5] = 40 mg/kg intraperitoneally 30 minutes, 2, 24, 48 hours after surgery
# [6] = 30 mg/kg intraperitoneally 40 minutes before the experiment
# [7] = 60 mg/kg intraperitoneally 40 minutes before the experiment
# [8] = 50 mg/kg intraperitoneally 30 minutes, 2, 24, 48 hours after surgery
SMILES,"Life interval of mice (minutes) exposed to hypobaric hypoxia [2, 6]","Life interval of mice (minutes) exposed to hypobaric hypoxia [2, 7]",Latent period of entry to dark dangerous chamber [3],"Number of animals which died in relation to total number of operated animals, absolute, Day 1 after surgery [4]","Number of animals which died in relation to total number of operated animals, absolute, Day 3 after surgery [4]","Number of animals which died in relation to total number of operated animals, absolute, Day 7 after surgery [4]","Number of animals which died in relation to total number of operated animals, absolute, Day 14 after surgery [4]","Number of animals which died, %, Day 1 after surgery [4]","Number of animals which died, %, Day 3 after surgery [4]","Number of animals which died, %, Day 7 after surgery [4]","Number of animals which died, %, Day 14 after surgery [4]",also measured
"O=C([O-])CC[C@H](NC(=O)c1cncc(O)c1)C(=O)[O-].[Ca+2] [Compound I, Calcium N-(5-hydroxynicotinoyl)-L-glutamate]",6.51 ± 0.82 min,9.17 ± 0.91 min,62.3 ± 7.2 s,1 of 20,2 of 20,2 of 20,2 of 20,5%,10## %,10## %,10%,"Total affected area (percentage of volume of ipsilateral hemisphere) ([1]; 40 mg/kg after ischemia-inducing exposure): 10.54±1.84%; Intensity of ischemic damage of cerebral cortex (slice score, points), slice 1 [1, 5]: 0.08 ± 0.01 points; Intensity of ischemic damage of cerebral cortex (slice score, points), slice 2 [1, 5]: 0.92 ± 0.12 points; Intensity of ischemic damage of cerebral cortex (slice score, points), slice 3 [1, 5]: 0.7 ± 0.19 points; Intensity of ischemic damage of cerebral cortex (slice score, points), slice 4 [1, 5]: 0.58 ± 0.14 points; Intensity of ischemic damage of cerebral cortex (slice score, points), slice 5 [1, 5]: 0.2 ± 0.15 points; Decrease of total affected extent versus control ([1]; 40 mg/kg, p<0.05): 47.3%; Number of animals which died, %, Day 14 after surgery ([4]; listed as compound I): 10## %"
"O=C(O)CC[C@H](NC(=O)c1cncc(O)c1)C(=O)O [Nooglutyl, N-(5-hydroxynicotinoyl)-L-glutamic acid, reference compound]",4.1 ± 0.77 min,7.68 ± 0.54 min,56.2 ± 8.3 s,3 of 20,4 of 20,4 of 20,4 of 20,15%,20# %,20# %,20%,"Total affected area (percentage of volume of ipsilateral hemisphere) ([1]; 50 mg/kg after ischemia-inducing exposure): 14.3±2.14%; Intensity of ischemic damage of cerebral cortex (slice score, points), slice 1 [1, 8]: 0.28 ± 0.06 points; Intensity of ischemic damage of cerebral cortex (slice score, points), slice 2 [1, 8]: 1.12 ± 0.17 points; Intensity of ischemic damage of cerebral cortex (slice score, points), slice 3 [1, 8]: 1.01 ± 0.11 points; Intensity of ischemic damage of cerebral cortex (slice score, points), slice 4 [1, 8]: 0.59 ± 0.19 points; Intensity of ischemic damage of cerebral cortex (slice score, points), slice 5 [1, 8]: 0.18 ± 0.14 points; Number of animals which died, %, Day 14 after surgery ([4]; listed as nooglutyl): 20## %"
